This assay deals with human ATR kinase (Homo sapiens (Human), UniProt Q13535). Put plainly: In vitro evaluation of inhibitory activity on human ATR kinase (HTRF, ATR/ATRIP(h), GST-cMyc-p53 substrate). The class given is biochemical. Conditions: 50 nM GST-cMyc-p53, 30 min room temperature. The procedure:
IC50 values were determined to evaluate the inhibitory activity of the tested compounds on human ATR kinase.
ATR/ATRIP(h) was incubated in assay buffer containing 50 nM GST-cMyc-p53 and Mg/ATP (according to concentration required). The reaction was initiated by adding Mg/ATP mixture. After incubating for 30 min at room temperature, a stop solution containing EDTA to was added to terminate the reaction. Finally, detecting buffer containing d^2-labeled anti-GST monoclonal antibody and europium-labeled anti-phospho Ser15 antibody against phosphorylated p^53 were added. Then the plate was read in time-resolved fluorescence mode and homogeneous time resolution was performed.
The fluorescence (HTRF) signal was determined according to the formula HTRF=10000×(Em665 nm/Em620 nm).
IC50 data was analyzed using XLFit version 5.3 (ID Business Solutions). Non-linear regression analysis was used to fit the sigmoidal dose response (variable slope) curve.
On the technique in general: TR-FRET usually uses a lanthanide donor and a delayed reading to cut background.

This is an account of results in patent US11434232B2, “ATR inhibitor and application thereof” (WUXI BIOCITY BIOPHARMACEUTICS CO., LTD., priority 2018, dated 2022).

SMILES strings stand for the structures.

Sequence of human ATR kinase (Q13535 whole entry): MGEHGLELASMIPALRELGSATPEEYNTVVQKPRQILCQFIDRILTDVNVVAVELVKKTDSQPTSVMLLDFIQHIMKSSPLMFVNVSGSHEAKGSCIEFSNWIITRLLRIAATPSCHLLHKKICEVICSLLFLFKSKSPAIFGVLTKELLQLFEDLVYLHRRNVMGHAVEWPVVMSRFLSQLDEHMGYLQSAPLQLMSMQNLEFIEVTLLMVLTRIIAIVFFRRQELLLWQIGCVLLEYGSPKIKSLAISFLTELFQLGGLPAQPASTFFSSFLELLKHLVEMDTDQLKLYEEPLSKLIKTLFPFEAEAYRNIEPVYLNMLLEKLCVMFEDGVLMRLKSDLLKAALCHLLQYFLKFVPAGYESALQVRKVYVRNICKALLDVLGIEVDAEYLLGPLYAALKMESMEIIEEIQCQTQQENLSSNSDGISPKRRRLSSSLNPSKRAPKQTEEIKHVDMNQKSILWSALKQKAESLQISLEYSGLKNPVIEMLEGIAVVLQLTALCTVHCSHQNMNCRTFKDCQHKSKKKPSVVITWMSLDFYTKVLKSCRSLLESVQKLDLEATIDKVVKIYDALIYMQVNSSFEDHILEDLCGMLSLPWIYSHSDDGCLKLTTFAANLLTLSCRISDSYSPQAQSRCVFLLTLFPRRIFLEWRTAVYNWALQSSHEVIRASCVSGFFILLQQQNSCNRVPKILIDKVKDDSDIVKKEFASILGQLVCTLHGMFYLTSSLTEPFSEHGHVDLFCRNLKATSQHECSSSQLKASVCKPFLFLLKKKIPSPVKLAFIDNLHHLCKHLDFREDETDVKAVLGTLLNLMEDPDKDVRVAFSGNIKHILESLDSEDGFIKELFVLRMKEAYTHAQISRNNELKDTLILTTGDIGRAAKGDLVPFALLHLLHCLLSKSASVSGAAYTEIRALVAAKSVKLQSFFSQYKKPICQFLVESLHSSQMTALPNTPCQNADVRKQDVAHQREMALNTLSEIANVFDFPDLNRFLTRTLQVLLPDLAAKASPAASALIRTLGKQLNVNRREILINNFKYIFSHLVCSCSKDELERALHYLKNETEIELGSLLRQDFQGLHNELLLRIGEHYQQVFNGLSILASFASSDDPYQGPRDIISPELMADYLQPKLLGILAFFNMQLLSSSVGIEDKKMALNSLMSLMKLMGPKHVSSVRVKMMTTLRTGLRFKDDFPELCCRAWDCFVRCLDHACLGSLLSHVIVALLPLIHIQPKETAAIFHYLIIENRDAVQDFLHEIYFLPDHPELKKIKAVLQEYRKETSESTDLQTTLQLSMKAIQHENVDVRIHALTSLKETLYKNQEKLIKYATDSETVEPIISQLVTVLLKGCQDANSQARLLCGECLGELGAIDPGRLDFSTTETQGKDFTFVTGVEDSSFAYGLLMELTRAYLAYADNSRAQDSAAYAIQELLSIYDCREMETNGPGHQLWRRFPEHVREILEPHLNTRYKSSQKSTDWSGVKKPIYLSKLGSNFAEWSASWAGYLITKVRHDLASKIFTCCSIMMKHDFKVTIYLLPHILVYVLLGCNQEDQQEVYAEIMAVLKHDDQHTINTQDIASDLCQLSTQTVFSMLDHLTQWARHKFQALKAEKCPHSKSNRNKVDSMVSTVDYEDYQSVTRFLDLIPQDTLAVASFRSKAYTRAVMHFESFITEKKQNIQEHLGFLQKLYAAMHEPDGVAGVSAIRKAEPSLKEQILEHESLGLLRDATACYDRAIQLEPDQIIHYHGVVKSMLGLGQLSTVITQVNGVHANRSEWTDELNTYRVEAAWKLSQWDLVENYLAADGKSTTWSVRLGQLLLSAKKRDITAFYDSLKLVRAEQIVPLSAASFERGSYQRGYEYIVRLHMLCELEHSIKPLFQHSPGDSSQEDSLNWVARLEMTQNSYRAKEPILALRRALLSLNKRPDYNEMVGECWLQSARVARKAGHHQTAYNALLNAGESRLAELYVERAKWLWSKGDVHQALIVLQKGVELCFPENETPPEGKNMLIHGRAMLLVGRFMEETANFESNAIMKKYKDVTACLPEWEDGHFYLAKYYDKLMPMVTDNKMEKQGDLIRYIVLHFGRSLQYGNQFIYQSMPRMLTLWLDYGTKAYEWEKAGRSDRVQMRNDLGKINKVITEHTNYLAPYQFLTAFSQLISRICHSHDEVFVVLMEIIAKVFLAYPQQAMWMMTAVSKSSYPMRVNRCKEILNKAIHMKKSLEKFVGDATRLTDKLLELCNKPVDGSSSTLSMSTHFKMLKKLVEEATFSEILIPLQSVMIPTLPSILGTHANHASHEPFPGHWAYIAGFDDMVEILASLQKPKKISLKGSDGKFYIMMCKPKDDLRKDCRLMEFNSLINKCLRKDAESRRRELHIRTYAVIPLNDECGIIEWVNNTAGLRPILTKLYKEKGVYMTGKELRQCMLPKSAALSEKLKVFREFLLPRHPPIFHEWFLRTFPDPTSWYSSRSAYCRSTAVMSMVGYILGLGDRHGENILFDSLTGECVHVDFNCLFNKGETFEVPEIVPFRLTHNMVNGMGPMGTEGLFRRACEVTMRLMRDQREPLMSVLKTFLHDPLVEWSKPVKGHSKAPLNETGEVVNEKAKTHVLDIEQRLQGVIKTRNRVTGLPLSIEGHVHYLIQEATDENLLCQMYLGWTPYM
Sequence of human ATR kinase (Q8WXE1 whole entry partner): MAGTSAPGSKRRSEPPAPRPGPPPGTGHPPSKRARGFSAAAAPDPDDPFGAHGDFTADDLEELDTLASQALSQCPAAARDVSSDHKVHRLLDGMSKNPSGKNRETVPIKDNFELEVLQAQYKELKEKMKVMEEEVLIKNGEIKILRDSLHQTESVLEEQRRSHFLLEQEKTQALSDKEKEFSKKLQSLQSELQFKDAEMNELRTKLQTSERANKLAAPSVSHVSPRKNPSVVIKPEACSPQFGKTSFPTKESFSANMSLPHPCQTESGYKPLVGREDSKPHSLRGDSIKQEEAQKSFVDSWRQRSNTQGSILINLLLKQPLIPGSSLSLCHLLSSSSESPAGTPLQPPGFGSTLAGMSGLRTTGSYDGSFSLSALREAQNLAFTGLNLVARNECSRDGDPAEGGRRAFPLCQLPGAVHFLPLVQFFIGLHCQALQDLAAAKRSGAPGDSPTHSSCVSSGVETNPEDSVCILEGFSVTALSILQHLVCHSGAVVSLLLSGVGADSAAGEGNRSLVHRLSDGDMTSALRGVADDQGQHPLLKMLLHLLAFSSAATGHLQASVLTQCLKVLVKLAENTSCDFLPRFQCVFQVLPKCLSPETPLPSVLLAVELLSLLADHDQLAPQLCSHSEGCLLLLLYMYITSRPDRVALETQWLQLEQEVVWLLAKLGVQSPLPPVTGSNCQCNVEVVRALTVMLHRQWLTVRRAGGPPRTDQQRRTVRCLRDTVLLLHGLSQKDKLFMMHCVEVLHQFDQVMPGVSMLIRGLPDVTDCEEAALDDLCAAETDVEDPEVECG

As to `C[C@@H]1COCCN1c1cc(-c2cccc3[nH]ccc23)nc(-c2ccnn2C)c1` [WX01], the IC50 – broadly, the point on the concentration scale where inhibition reaches its midpoint – turned out to be 119 nM.

Consider `C[C@@H]1COCCN1c1cc(-c2ccnn2C)nc(-c2cccc3[nH]ccc23)n1` [WX02], for which the IC50 was 72 nM. Against the preceding molecule, the IC50 is about 1.7-fold lower.

`Cc1cc(-c2cc(N3CCOC[C@H]3C)nc(-c3cccc4[nH]ccc34)n2)n(C)n1` [WX03] had an IC50 of 72 nM.

The molecule `C[C@@H]1COCCN1c1nc(-c2cccc3[nH]ccc23)cc(-c2ccnn2C)n1` [WX04] returned an IC50 of 91 nM.

Molecule `CCn1nccc1-c1cc(-c2cccc3[nH]ccc23)nc(N2CCOC[C@H]2C)n1` [WX05] came in with an IC50 of 53 nM.

Consider `C[C@@H]1COCCN1c1nc(-c2ccnc3[nH]ccc23)cc(-c2ccnn2C)n1` [WX06], for which half-maximal inhibition (IC50) was put at 245 nM.

Regarding `Cc1cnn(C)c1-c1cc(-c2ccnc3[nH]ccc23)nc(N2CCOC[C@H]2C)n1` [WX07], the IC50 is 75 nM.

Consider `CCn1nccc1-c1cc(-c2ccnc3[nH]ccc23)nc(N2CCOC[C@H]2C)n1` [WX08], for which 126 nM corresponded to half-maximal inhibition (IC50).

Take `C[C@@H]1COCCN1c1nc(-c2cc(F)cc3[nH]ccc23)cc(-c2ccnn2C)n1` [WX09]: half-maximal inhibition (IC50) required 369 nM.

As to `Cc1cnn(C)c1-c1cc(-c2cc(F)cc3[nH]ccc23)nc(N2CCOC[C@H]2C)n1` [WX10], the IC50 came out at 80 nM.

`CCn1nccc1-c1cc(-c2cc(F)cc3[nH]ccc23)nc(N2CCOC[C@H]2C)n1` [WX11] returned an IC50 of 191 nM. Against the preceding molecule, the IC50 is about 2.4-fold higher.

`Cc1cnn(C)c1-c1cc(-c2cccc3[nH]ccc23)nc(N2CCOC[C@H]2C)n1` [WX12]: the IC50 was determined as 41 nM.

Turning to `Cc1cnn(C)c1-c1cc(N2CCOC[C@H]2C)nc(-c2cccc3[nH]ccc23)n1` [WX13], half-maximal inhibition (IC50) was put at 24 nM.

`CCn1nccc1-c1cc(N2CCOC[C@H]2C)nc(-c2cccc3[nH]ccc23)n1` [WX14]: the IC50 was 50 nM.

With `Cc1cc(-c2cc(N3CCOC[C@H]3C)nc(-c3ccnc4[nH]ccc34)n2)n(C)n1` [WX16], the IC50 stood at 97 nM.

The molecule `Cc1cnn(C)c1-c1cc(N2CCOC[C@H]2C)nc(-c2ccnc3[nH]ccc23)n1` [WX17] yielded an IC50 of 12 nM.

On to `CCn1nccc1-c1cc(N2CCOC[C@H]2C)nc(-c2ccnc3[nH]ccc23)n1` [WX18], for which the IC50 was 83 nM.

Take `C[C@@H]1COCCN1c1cc(-c2ccnn2C)nc(-c2cc(F)cc3[nH]ccc23)n1` [WX19]: half-maximal inhibition (IC50) was put at 81 nM.

`Cc1cc(-c2cc(N3CCOC[C@H]3C)nc(-c3cc(F)cc4[nH]ccc34)n2)n(C)n1` [WX20] returned an IC50 of 69 nM. The IC50 values of the last two molecules are within 1.5-fold of each other.

Molecule `Cc1cnn(C)c1-c1cc(N2CCOC[C@H]2C)nc(-c2cc(F)cc3[nH]ccc23)n1` [WX21] yielded an IC50 of 27 nM. This IC50 lies about 2.6-fold lower than the previous one.

For `CCn1nccc1-c1cc(N2CCOC[C@H]2C)nc(-c2cc(F)cc3[nH]ccc23)n1` [WX22], the IC50 came out at 65 nM.

In the case of `Cc1n[nH]c(C)c1-c1cc(N2CCOC[C@H]2C)nc(-c2ccnc3[nH]ccc23)n1` [WX23], the IC50 worked out at 115 nM. This IC50 lies about 1.8-fold higher than the previous one.

Molecule `Cc1nn(C)c(C)c1-c1cc(N2CCOC[C@H]2C)nc(-c2ccnc3[nH]ccc23)n1` [WX24] registered an IC50 of 18 nM. This IC50 is about 6.4-fold lower than that of the molecule before.

`Cc1nn(C)cc1-c1cc(N2CCOC[C@H]2C)nc(-c2ccnc3[nH]ccc23)n1` [WX25]: the IC50 was determined as 92 nM.

`Cc1c(-c2cc(N3CCOC[C@H]3C)nc(-c3ccnc4[nH]ccc34)n2)cnn1C` [WX26] returned an IC50 of 123 nM.

In the case of `C[C@@H]1COCCN1c1cc(-c2cn(C)nc2C(F)(F)F)nc(-c2ccnc3[nH]ccc23)n1` [WX27], the IC50 was 123 nM.

The molecule `Cc1noc(C)c1-c1cc(N2CCOC[C@H]2C)nc(-c2ccnc3[nH]ccc23)n1` [WX28] had an IC50 of 47 nM.

In turn, `C[C@@H]1COCCN1c1cc(-c2cnn(C)c2CO)nc(-c2ccnc3[nH]ccc23)n1` [WX29] yielded an IC50 of 96 nM.

With `Cc1noc(C)c1-c1cc(-c2ccnc3[nH]ccc23)nc(N2CCOC[C@H]2C)c1` [WX30], the IC50 amounted to 35 nM.

Take `Cc1cnn(C)c1-c1cc(-c2ccnc3[nH]ccc23)nc(N2CCOC[C@H]2C)c1` [WX31]: the IC50 amounted to 39 nM.

On to `Cc1n[nH]c(C)c1-c1cc(-c2ccnc3[nH]ccc23)nc(N2CCOC[C@H]2C)c1` [WX32], for which the IC50 was 35 nM.
